Laboratory results reported in patent publication US9113629B2, “4-amino-6-(4-substituted-phenyl)-picolinates and 6-amino-2-(4-substituted-phenyl)-pyrimidine-4-carboxylates and their use as herbicides” (DOW AGROSCIENCES LLC, priority 2013, dated 2015).
Where two headings read alike, the source gives them in different places.

Experiments:
[1] = tested on: Key Broadleaf Weed and Crop Species; assay: Post-emergent Test II herbicidal activity (Table 5); assay type: in vivo; conditions: post-emergence, 336 h, post-emergent, 14 days after application; for pest or weed control at 70 g/ha: 70 g ai/ha; for pest or weed control at 140 g/ha: 140 g ai/ha
Method in brief: (§1)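 Visual injury ratings (0 = no injury, 100 = complete kill) were taken 14 d after treatment, relative to untreated plants. Seedlings at the first–second true leaf stage received overhead spray at 187 L/ha; the highest rate was serially diluted to ½×, ¼×, ⅛× and 1/16×.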

[2] = tested on: Key Grass and Sedge Weeds as well as Grass Crops; assay: Post-emergent Test II herbicidal activity (Table 6); assay type: in vivo; conditions: post-emergence, 336 h; for pest or weed control at 70 g/ha: application rate 70 g ai/ha; for pest or weed control at 140 g/ha: application rate 140 g ai/ha
Method in brief: as §1

[3] = ABUTH: velvetleaf (Abutilon theophrasti), read-out: Visual Growth Reduction (%) 14 Days After Application ABUTH
[4] = AMARE: redroot pigweed (Amaranthus retroflexus), read-out: Visual Growth Reduction (%) 14 Days After Application AMARE
[5] = BRSNN: oilseed-rape, canola (Brassica napus), read-out: Visual Growth Reduction (%) 14 Days After Application BRSNN
[6] = CHEAL: lambsquarters (Chenopodium album), read-out: Visual Growth Reduction (%) 14 Days After Application CHEAL
[7] = EPHHL: wild poinsettia (Euphorbia heterophylla), read-out: Visual Growth Reduction (%) 14 Days After Application EPHHL
[8] = HELAN: sunflower (Helianthus annuus), read-out: Visual Growth Reduction (%) 14 Days After Application HELAN
[9] = VIOTR: wild pansy (Viola tricolor), read-out: Visual Growth Reduction (%) 14 Days After Application VIOTR
[10] = Triticum aestivum, TRZSS (wheat), read-out: Visual Growth Reduction (%) 14 Days After Application, TRZSS
[11] = CYPES: yellow nutsedge (Cyperus esculentus), read-out: Visual Growth Reduction (%) 14 Days After Application, CYPES
[12] = DIGSA: crabgrass (Digitaria sanguinalis), read-out: Visual Growth Reduction (%) 14 Days After Application, DIGSA
[13] = ECHCG: barnyardgrass (Echinochloa crus-galli), read-out: Visual Growth Reduction (%) 14 Days After Application, ECHCG
[14] = ORYSA: rice (Oryza sativa), read-out: Visual Growth Reduction (%) 14 Days After Application, ORYSA
[15] = SETFA: giant foxtail (Setaria faberi), read-out: Visual Growth Reduction (%) 14 Days After Application, SETFA
[16] = SORVU: grain sorghum (Sorghum vulgare), read-out: Visual Growth Reduction (%) 14 Days After Application, SORVU
[17] = ZEAMX: maize, corn (Zea mays), read-out: Visual Growth Reduction (%) 14 Days After Application, ZEAMX

| Structure (SMILES) | pest or weed control at 70 g/ha [1, 3] [%] | pest or weed control at 140 g/ha [1, 3] [%] | pest or weed control at 70 g/ha [1, 4] [%] | pest or weed control at 140 g/ha [1, 4] [%] | pest or weed control at 70 g/ha [1, 5] [%] | pest or weed control at 140 g/ha [1, 5] [%] | pest or weed control at 70 g/ha [1, 6] [%] | pest or weed control at 140 g/ha [1, 6] [%] | pest or weed control at 70 g/ha [1, 7] [%] | pest or weed control at 140 g/ha [1, 7] [%] | pest or weed control at 70 g/ha [1, 8] [%] | pest or weed control at 140 g/ha [1, 8] [%] | pest or weed control at 70 g/ha [1, 9] [%] | pest or weed control at 140 g/ha [1, 9] [%] | pest or weed control at 70 g/ha [2, 10] [%] | pest or weed control at 140 g/ha [2, 10] [%] | pest or weed control at 70 g/ha [2, 11] [%] | pest or weed control at 140 g/ha [2, 11] [%] | pest or weed control at 70 g/ha [2, 12] [%] | pest or weed control at 140 g/ha [2, 12] [%] | also measured |
| --- | --- | --- | --- | --- | --- | --- | --- | --- | --- | --- | --- | --- | --- | --- | --- | --- | --- | --- | --- | --- | --- |
| C=Cc1c(C(=O)OC)nc(-c2ccc(C(F)(F)F)c(F)c2)c(F)c1N [Compound 12] | 75 to 84 | 85 to 94 | 0 to 29 | 45 to 59 | 0 to 29 | 0 to 29 | 0 to 29 | 0 to 29 | 45 to 59 | 95 to 100 | 0 to 29 | 0 to 29 | 0 to 29 | 0 to 29 | 0 to 29 | 0 to 29 | 30 to 44 | 45 to 59 | 0 to 29 | 0 to 29 | pest or weed control at 70 g/ha [2, 13]: 0 to 29%; pest or weed control at 140 g/ha [2, 13]: 0 to 29%; pest or weed control at 70 g/ha [2, 14]: 0 to 29%; pest or weed control at 140 g/ha [2, 14]: 0 to 29%; pest or weed control at 70 g/ha [2, 15]: 0 to 29%; pest or weed control at 140 g/ha [2, 15]: 0 to 29%; pest or weed control at 70 g/ha [2, 16]: 0 to 29%; pest or weed control at 140 g/ha [2, 16]: 0 to 29%; pest or weed control at 70 g/ha [2, 17]: 0 to 29%; pest or weed control at 140 g/ha [2, 17]: 0 to 29% |
| COC(=O)c1nc(-c2ccc(I)c(F)c2)c(Cl)c(N)c1Cl [Compound 13, Methyl 4-amino-3,5-dichloro-6-(3-fluoro-4-iodophenyl)picolinate] | 85 to 94 | 95 to 100 | 85 to 94 | 95 to 100 | 85 to 94 | 85 to 94 | 95 to 100 | 95 to 100 | 0 to 29 | 30 to 44 | 95 to 100 | 95 to 100 | 0 to 29 | 0 to 29 | 45 to 59 | 60 to 74 | 75 to 84 | 75 to 84 | 60 to 74 | 75 to 84 | pest or weed control at 70 g/ha [2, 13]: 60 to 74%; pest or weed control at 140 g/ha [2, 13]: 75 to 84%; pest or weed control at 70 g/ha [2, 14]: 0 to 29%; pest or weed control at 140 g/ha [2, 14]: 0 to 29%; pest or weed control at 70 g/ha [2, 15]: 45 to 59%; pest or weed control at 140 g/ha [2, 15]: 75 to 84%; pest or weed control at 70 g/ha [2, 16]: 85 to 94%; pest or weed control at 140 g/ha [2, 16]: 85 to 94%; pest or weed control at 70 g/ha [2, 17]: 60 to 74%; pest or weed control at 140 g/ha [2, 17]: 60 to 74% |
